Structures are written as SMILES.

The subject of one assay is Plasmopara viticola. Kind of assay: Test A: grape downy mildew, curative spray on inoculated grape seedlings, visual disease rating. Conditions: 100 = 100% disease control, 0 = no control relative to controls. The class given is in vivo. The text has this:
Upon removal, visual disease ratings were made. […] A dash (-) indicates no test results.
As for `Cc1nn(C)c(N(C)c2c(F)cc(F)cc2F)c1-c1ccc(F)cc1Cl` [compound 293], the “Test A rating (% disease control)” value stood at 0%.

For `COc1ccc(Nc2c(-c3ccc(F)cc3Cl)c(C)nn2C)cc1` [compound 288], the “Test A rating (% disease control)” value was found to be 9%.

Consider `CCN(c1c(F)cc(F)cc1F)c1c(-c2ccc(F)cc2Cl)c(C)nn1C` [compound 294], for which the “Test A rating (% disease control)” value worked out at 0%.

In a further assay the test system is Phytophthora infestans.
Assay: not given
The assay is classed as in vivo. Conditions: tomato late blight, preventive spray; 100 = 100% disease control, 0 = no control.
For `Cc1nn(C)c(Nc2ccccc2F)c1-c1ccc(F)cc1Cl` [compound 12], the “Test D rating (% disease control)” value amounted to 0%.

For the compound `Cc1nn(C)c(Nc2ccc(F)cc2F)c1-c1ccc(F)cc1Cl` [compound 13], the “Test D rating (% disease control)” value worked out at 0%.

For the compound `Cc1nn(C)c(Nc2cc(F)cc(F)c2F)c1-c1ccc(Cl)cc1` [compound 10], the “Test D rating (% disease control)” value came to 0%.

Consider `Cc1nn(C)c(Nc2cc(F)cc(F)c2)c1-c1ccc(F)cc1Cl` [compound 9], for which the “Test D rating (% disease control)” value came out at 0%.

In the case of `Cc1nn(C)c(Nc2ccc(F)cc2)c1-c1ccc(F)cc1Cl` [compound 11], the “Test D rating (% disease control)” value amounted to 0%.

Still in this assay, the particulars now being: tomato late blight; 100 = 100% disease control, 0 = no control relative to controls.
For the compound `Cc1nn(C)c(N(C)c2c(F)cc(F)cc2F)c1-c1ccc(F)cc1Cl` [compound 293], the “Test D rating (% disease control)” value amounted to 0%.

Consider `COc1ccc(Nc2c(-c3ccc(F)cc3Cl)c(C)nn2C)cc1` [compound 288], for which the “Test D rating (% disease control)” value is 0%.

As to `CCN(c1c(F)cc(F)cc1F)c1c(-c2ccc(F)cc2Cl)c(C)nn1C` [compound 294], the “Test D rating (% disease control)” value was 0%.

In another assay the test system is Rhizoctonia solani. Description: Test E: turf brown patch, preventive spray on creeping bent grass (Agrostis sp.) seedlings, disease rating. The assay is classed as in vivo. Conditions: 100 = 100% disease control, 0 = no control relative to controls. The text has this:
A dash (-) indicates no test results.
Turning to `Cc1nn(C)c(N(C)c2c(F)cc(F)cc2F)c1-c1ccc(F)cc1Cl` [compound 293], the “Test E rating (% disease control)” value stood at 99%.

Regarding `COc1ccc(Nc2c(-c3ccc(F)cc3Cl)c(C)nn2C)cc1` [compound 288], the “Test E rating (% disease control)” value was 92%.

`CCN(c1c(F)cc(F)cc1F)c1c(-c2ccc(F)cc2Cl)c(C)nn1C` [compound 294]: the “Test E rating (% disease control)” value was found to be 80%.

The assay is the same for the next values; noted with them: preventive spray, 100 = 100% disease control, 0 = no control.
Consider `Cc1nn(C)c(Nc2ccccc2F)c1-c1ccc(F)cc1Cl` [compound 12], for which the “Test E rating (% disease control)” value amounted to 99%.

For the compound `Cc1nn(C)c(Nc2ccc(F)cc2F)c1-c1ccc(F)cc1Cl` [compound 13], the “Test E rating (% disease control)” value was 98%.

For the compound `Cc1nn(C)c(Nc2cc(F)cc(F)c2F)c1-c1ccc(Cl)cc1` [compound 10], the “Test E rating (% disease control)” value came to 0%.

Consider `Cc1nn(C)c(Nc2cc(F)cc(F)c2)c1-c1ccc(F)cc1Cl` [compound 9], for which the “Test E rating (% disease control)” value stood at 55%.

`Cc1nn(C)c(Nc2ccc(F)cc2)c1-c1ccc(F)cc1Cl` [compound 11]: the “Test E rating (% disease control)” value is 99%.

A further assay has as its system Puccinia recondita f. sp. tritici. Description: Test I: wheat leaf rust, preventive spray on wheat seedlings, visual disease rating. Conditions: wheat leaf rust, preventive spray; 100 = 100% disease control, 0 = no control.
With `Cc1nn(C)c(Nc2ccccc2F)c1-c1ccc(F)cc1Cl` [compound 12], the “Test I rating (% disease control)” value was determined as 99%.

As for `Cc1nn(C)c(Nc2ccc(F)cc2F)c1-c1ccc(F)cc1Cl` [compound 13], the “Test I rating (% disease control)” value is 100%.

Regarding `Cc1nn(C)c(Nc2cc(F)cc(F)c2F)c1-c1ccc(Cl)cc1` [compound 10], the “Test I rating (% disease control)” value is reported as 0%.

For the compound `Cc1nn(C)c(Nc2cc(F)cc(F)c2)c1-c1ccc(F)cc1Cl` [compound 9], the “Test I rating (% disease control)” value is recorded as 98%.

In the case of `Cc1nn(C)c(Nc2ccc(F)cc2)c1-c1ccc(F)cc1Cl` [compound 11], the “Test I rating (% disease control)” value came to 99%.

Still in this assay, the particulars now being: wheat leaf rust, preventive; 100 = 100% disease control, 0 = no control relative to controls.
On to `Cc1nn(C)c(N(C)c2c(F)cc(F)cc2F)c1-c1ccc(F)cc1Cl` [compound 293], for which the “Test I rating (% disease control)” value is 94%.

Consider `COc1ccc(Nc2c(-c3ccc(F)cc3Cl)c(C)nn2C)cc1` [compound 288], for which the “Test I rating (% disease control)” value stood at 74%.

With `CCN(c1c(F)cc(F)cc1F)c1c(-c2ccc(F)cc2Cl)c(C)nn1C` [compound 294], the “Test I rating (% disease control)” value is listed as 0%.

The subject of another assay is Botrytis cinerea. Description: Test B: tomato Botrytis, preventive spray on tomato seedlings, visual disease rating. Conditions: tomato Botrytis, preventive spray; 100 = 100% disease control, 0 = no control.
Turning to `Cc1nn(C)c(Nc2ccccc2F)c1-c1ccc(F)cc1Cl` [compound 12], the “Test B rating (% disease control)” value was determined as 99%.

Turning to `Cc1nn(C)c(Nc2ccc(F)cc2F)c1-c1ccc(F)cc1Cl` [compound 13], the “Test B rating (% disease control)” value is 99%.

`Cc1nn(C)c(Nc2cc(F)cc(F)c2F)c1-c1ccc(Cl)cc1` [compound 10]: the “Test B rating (% disease control)” value came out at 47%.

Take `Cc1nn(C)c(Nc2cc(F)cc(F)c2)c1-c1ccc(F)cc1Cl` [compound 9]: the “Test B rating (% disease control)” value is 99%.

As to `Cc1nn(C)c(Nc2ccc(F)cc2)c1-c1ccc(F)cc1Cl` [compound 11], the “Test B rating (% disease control)” value is given as 99%.

The same assay, now with this note: tomato Botrytis; 100 = 100% disease control, 0 = no control relative to controls.
Turning to `Cc1nn(C)c(N(C)c2c(F)cc(F)cc2F)c1-c1ccc(F)cc1Cl` [compound 293], the “Test B rating (% disease control)” value is 97%.

`COc1ccc(Nc2c(-c3ccc(F)cc3Cl)c(C)nn2C)cc1` [compound 288]: the “Test B rating (% disease control)” value turned out to be 99%.

In the case of `CCN(c1c(F)cc(F)cc1F)c1c(-c2ccc(F)cc2Cl)c(C)nn1C` [compound 294], the “Test B rating (% disease control)” value is recorded as 98%.

In the next assay the test system is Septoria tritici. Description: Test G: wheat leaf blotch, preventive spray on wheat seedlings, visual disease rating. Conditions: wheat leaf blotch, preventive spray; 100 = 100% disease control, 0 = no control.
In the case of `Cc1nn(C)c(Nc2ccccc2F)c1-c1ccc(F)cc1Cl` [compound 12], the “Test G rating (% disease control)” value is 100%.

For `Cc1nn(C)c(Nc2ccc(F)cc2F)c1-c1ccc(F)cc1Cl` [compound 13], the “Test G rating (% disease control)” value came to 100%.

With `Cc1nn(C)c(Nc2cc(F)cc(F)c2F)c1-c1ccc(Cl)cc1` [compound 10], the “Test G rating (% disease control)” value amounted to 0%.

Regarding `Cc1nn(C)c(Nc2cc(F)cc(F)c2)c1-c1ccc(F)cc1Cl` [compound 9], the “Test G rating (% disease control)” value is on record as 100%.

For the compound `Cc1nn(C)c(Nc2ccc(F)cc2)c1-c1ccc(F)cc1Cl` [compound 11], the “Test G rating (% disease control)” value turned out to be 100%.

The subject of the next assay is Alternaria solani. Description: Test C: tomato early blight, preventive spray on tomato seedlings, visual disease rating. Conditions: tomato early blight, preventive spray; 100 = 100% disease control, 0 = no control.
For `Cc1nn(C)c(Nc2ccccc2F)c1-c1ccc(F)cc1Cl` [compound 12], the “Test C rating (% disease control)” value amounted to 93%.

With `Cc1nn(C)c(Nc2ccc(F)cc2F)c1-c1ccc(F)cc1Cl` [compound 13], the “Test C rating (% disease control)” value worked out at 100%.

As to `Cc1nn(C)c(Nc2cc(F)cc(F)c2F)c1-c1ccc(Cl)cc1` [compound 10], the “Test C rating (% disease control)” value is on record as 0%.

`Cc1nn(C)c(Nc2cc(F)cc(F)c2)c1-c1ccc(F)cc1Cl` [compound 9]: the “Test C rating (% disease control)” value amounted to 0%.

On to `Cc1nn(C)c(Nc2ccc(F)cc2)c1-c1ccc(F)cc1Cl` [compound 11], for which the “Test C rating (% disease control)” value came out at 99%.

Still in this assay, the particulars now being: tomato early blight; 100 = 100% disease control, 0 = no control relative to controls.
In the case of `Cc1nn(C)c(N(C)c2c(F)cc(F)cc2F)c1-c1ccc(F)cc1Cl` [compound 293], the “Test C rating (% disease control)” value was 47%.

Turning to `COc1ccc(Nc2c(-c3ccc(F)cc3Cl)c(C)nn2C)cc1` [compound 288], the “Test C rating (% disease control)” value is 52%.

With `CCN(c1c(F)cc(F)cc1F)c1c(-c2ccc(F)cc2Cl)c(C)nn1C` [compound 294], the “Test C rating (% disease control)” value stood at 0%.

The subject of a further assay is Erysiphe graminis f sp. tritici. Kind of assay: Test J: wheat powdery mildew, preventive spray on wheat seedlings, visual disease rating. Conditions: wheat powdery mildew, preventive spray; 100 = 100% disease control, 0 = no control.
With `Cc1nn(C)c(Nc2ccccc2F)c1-c1ccc(F)cc1Cl` [compound 12], the “Test J rating (% disease control)” value was 100%.

In the case of `Cc1nn(C)c(Nc2ccc(F)cc2F)c1-c1ccc(F)cc1Cl` [compound 13], the “Test J rating (% disease control)” value is reported as 99%.

Regarding `Cc1nn(C)c(Nc2cc(F)cc(F)c2F)c1-c1ccc(Cl)cc1` [compound 10], the “Test J rating (% disease control)” value is recorded as 0%.

With `Cc1nn(C)c(Nc2cc(F)cc(F)c2)c1-c1ccc(F)cc1Cl` [compound 9], the “Test J rating (% disease control)” value is 97%.

For `Cc1nn(C)c(Nc2ccc(F)cc2)c1-c1ccc(F)cc1Cl` [compound 11], the “Test J rating (% disease control)” value is recorded as 100%.

Staying with this assay, now noted: wheat powdery mildew; 100 = 100% disease control, 0 = no control relative to controls.
On to `Cc1nn(C)c(N(C)c2c(F)cc(F)cc2F)c1-c1ccc(F)cc1Cl` [compound 293], for which the “Test J rating (% disease control)” value came to 99%.

In the case of `COc1ccc(Nc2c(-c3ccc(F)cc3Cl)c(C)nn2C)cc1` [compound 288], the “Test J rating (% disease control)” value was found to be 92%.

With `CCN(c1c(F)cc(F)cc1F)c1c(-c2ccc(F)cc2Cl)c(C)nn1C` [compound 294], the “Test J rating (% disease control)” value is 84%.

In another assay the test system is Septoria nodorum. Description: Test F: Septoria glume blotch, preventive spray on wheat seedlings, visual disease rating. Conditions: Septoria glume blotch on wheat, preventive spray; 100 = 100% disease control, 0 = no control.
Turning to `Cc1nn(C)c(Nc2ccccc2F)c1-c1ccc(F)cc1Cl` [compound 12], the “Test F rating (% disease control)” value was found to be 0%.

Regarding `Cc1nn(C)c(Nc2ccc(F)cc2F)c1-c1ccc(F)cc1Cl` [compound 13], the “Test F rating (% disease control)” value worked out at 64%.

Regarding `Cc1nn(C)c(Nc2cc(F)cc(F)c2F)c1-c1ccc(Cl)cc1` [compound 10], the “Test F rating (% disease control)” value worked out at 0%.

As for `Cc1nn(C)c(Nc2cc(F)cc(F)c2)c1-c1ccc(F)cc1Cl` [compound 9], the “Test F rating (% disease control)” value is on record as 0%.

`Cc1nn(C)c(Nc2ccc(F)cc2)c1-c1ccc(F)cc1Cl` [compound 11]: the “Test F rating (% disease control)” value is reported as 0%.

The assay is the same for the next values; noted with them: Septoria glume blotch; 100 = 100% disease control, 0 = no control relative to controls.
For the compound `Cc1nn(C)c(N(C)c2c(F)cc(F)cc2F)c1-c1ccc(F)cc1Cl` [compound 293], the “Test F rating (% disease control)” value was 0%.

Consider `COc1ccc(Nc2c(-c3ccc(F)cc3Cl)c(C)nn2C)cc1` [compound 288], for which the “Test F rating (% disease control)” value was found to be 0%.

As for `CCN(c1c(F)cc(F)cc1F)c1c(-c2ccc(F)cc2Cl)c(C)nn1C` [compound 294], the “Test F rating (% disease control)” value was determined as 0%.
